Measurements as given in the NIST ThermoML archive (doi:10.1016/j.jct.2017.03.026).
Where “and” joins values, the source holds several entries; their conditions need not be identical. Identical values can stand only once.

Experiment: molar heat capacity at constant pressure
Conditions: 101.33 kPa, Crystal, Small (less than 1 g) adiabatic calorimetry

O.O.O.O.O.O=S(=O)([O-])[O-].[Cu+2] [copper(II) sulfate pentahydrate]
Conditions | molar heat capacity at constant pressure
233.45 K | 239.84 J/K/mol
234.05 K | 245.57 J/K/mol
234.17 K | 240.04 J/K/mol
234.4 K | 246.29 J/K/mol
234.6 K | 245.97 J/K/mol
234.74 K | 245.84 J/K/mol
235.43 K | 246.76 J/K/mol
235.54 K | 247.78 J/K/mol
235.9 K | 247.43 J/K/mol
236.03 K | 249.81 J/K/mol
236.12 K | 248.09 J/K/mol
236.33 K | 241.79 J/K/mol
236.34 K | 242 J/K/mol
236.67 K | 248.93 J/K/mol
236.8 K | 248.39 J/K/mol
237.18 K | 249.45 J/K/mol
237.49 K | 248.39 J/K/mol
237.8 K | 249.96 J/K/mol
238.17 K | 249.66 J/K/mol
238.48 K | 250.93 J/K/mol
238.49 K | 242.57 J/K/mol
238.86 K | 250.68 J/K/mol
238.93 K | 250.66 J/K/mol
239.22 K | 244.58 J/K/mol
239.28 K | 253.63 J/K/mol
239.54 K | 251.41 J/K/mol
239.78 K | 251.78 J/K/mol
240 K | 244.6 J/K/mol
240.05 K | 252.46 J/K/mol
240.22 K | 252.08 J/K/mol
240.64 K | 245.25 J/K/mol
240.9 K | 252.78 J/K/mol
241.06 K | 253.96 J/K/mol
241.18 K | 254.16 J/K/mol
241.62 K | 254.68 J/K/mol
242.1 K | 246.15 J/K/mol
242.31 K | 255.3 J/K/mol and 255.28 J/K/mol
242.34 K | 255.3 J/K/mol
242.5 K | 257.5 J/K/mol
242.81 K | 246.88 J/K/mol
243 K | 255.25 J/K/mol
243.44 K | 256.35 J/K/mol
243.63 K | 256.1 J/K/mol
243.67 K | 255.75 J/K/mol
244.35 K | 256.2 J/K/mol
244.56 K | 257.83 J/K/mol
244.9 K | 258.25 J/K/mol
244.96 K | 248.55 J/K/mol
244.99 K | 248.48 J/K/mol
245.02 K | 258.05 J/K/mol
245.68 K | 259.42 J/K/mol
245.7 K | 261.47 J/K/mol and 258.65 J/K/mol
246.21 K | 260.25 J/K/mol
246.37 K | 259.35 J/K/mol
246.81 K | 261 J/K/mol
247.04 K | 259.87 J/K/mol
247.17 K | 250.06 J/K/mol
247.49 K | 261.87 J/K/mol
247.71 K | 260.55 J/K/mol
247.81 K | 250.77 J/K/mol
247.93 K | 262.47 J/K/mol
248.38 K | 262.79 J/K/mol
248.76 K | 263.79 J/K/mol
248.87 K | 265.57 J/K/mol
249.05 K | 263.94 J/K/mol and 263.89 J/K/mol
249.35 K | 251.83 J/K/mol
249.73 K | 264.77 J/K/mol
250 K | 252.3 J/K/mol
250.03 K | 265.72 J/K/mol
250.16 K | 265.92 J/K/mol
250.4 K | 265.12 J/K/mol
250.65 K | 253.29 J/K/mol
250.81 K | 264.67 J/K/mol
251.06 K | 267.06 J/K/mol
251.11 K | 266.37 J/K/mol
251.28 K | 267.34 J/K/mol
251.4 K | 267.19 J/K/mol
251.54 K | 253.61 J/K/mol
251.7 K | 267.09 J/K/mol
251.73 K | 268.24 J/K/mol
252 K | 268.41 J/K/mol
252.02 K | 268.79 J/K/mol
252.3 K | 268.34 J/K/mol
252.43 K | 268.74 J/K/mol
252.44 K | 269.16 J/K/mol
252.6 K | 268.74 J/K/mol
252.91 K | 269.29 J/K/mol
253.1 K | 269.76 J/K/mol
253.21 K | 269.44 J/K/mol
253.49 K | 254.99 J/K/mol
253.51 K | 272.53 J/K/mol
253.55 K | 268.86 J/K/mol
253.73 K | 255.6 J/K/mol
253.77 K | 270.41 J/K/mol
253.82 K | 269.46 J/K/mol
254.13 K | 270.51 J/K/mol
254.44 K | 270.78 J/K/mol
254.48 K | 271.06 J/K/mol
254.67 K | 267.86 J/K/mol
254.79 K | 270.11 J/K/mol
255.09 K | 270.86 J/K/mol
255.11 K | 269.99 J/K/mol
255.15 K | 266.89 J/K/mol
255.4 K | 268.06 J/K/mol
255.71 K | 269.24 J/K/mol
255.78 K | 268.39 J/K/mol
255.79 K | 265.69 J/K/mol
255.93 K | 257.4 J/K/mol
256.02 K | 270.78 J/K/mol
256.31 K | 256.81 J/K/mol
256.34 K | 267.49 J/K/mol
256.46 K | 267.76 J/K/mol
256.65 K | 267.31 J/K/mol
256.92 K | 265.79 J/K/mol
256.96 K | 267.59 J/K/mol
257.13 K | 266.91 J/K/mol
257.27 K | 266.51 J/K/mol
257.59 K | 266.84 J/K/mol
257.81 K | 266.84 J/K/mol
257.9 K | 267.19 J/K/mol
258.04 K | 266.69 J/K/mol
258.2 K | 258.77 J/K/mol
258.23 K | 266.29 J/K/mol
258.28 K | 269.36 J/K/mol
258.49 K | 266.59 J/K/mol
258.54 K | 266.91 J/K/mol
258.86 K | 266.27 J/K/mol
259.1 K | 259.75 J/K/mol
259.16 K | 267.91 J/K/mol and 267.81 J/K/mol
259.17 K | 266.56 J/K/mol
259.54 K | 267.76 J/K/mol
259.84 K | 267.96 J/K/mol
259.85 K | 268.01 J/K/mol
260 K | 260.1 J/K/mol
260.17 K | 268.06 J/K/mol
260.28 K | 269.14 J/K/mol
260.42 K | 260.6 J/K/mol
260.48 K | 269.74 J/K/mol
260.5 K | 268.36 J/K/mol
260.81 K | 268.66 J/K/mol
261.13 K | 268.81 J/K/mol
261.17 K | 270.24 J/K/mol
261.39 K | 272.21 J/K/mol
261.41 K | 270.41 J/K/mol
261.45 K | 269.31 J/K/mol
261.76 K | 270.09 J/K/mol
261.85 K | 271.36 J/K/mol
261.91 K | 260.82 J/K/mol
262.08 K | 270.58 J/K/mol
262.39 K | 270.73 J/K/mol
262.53 K | 272.18 J/K/mol and 271.23 J/K/mol
262.65 K | 262.42 J/K/mol
262.71 K | 270.93 J/K/mol
263.03 K | 271.38 J/K/mol
263.24 K | 272.33 J/K/mol
263.34 K | 272.38 J/K/mol
263.65 K | 274.08 J/K/mol
263.66 K | 273.13 J/K/mol
